Assay [1] has as its system naïve THP-1. The assay can be described thus: Expression over time in naïve THP-1. Type of assay: cell-based, human.
Assay [2] relates to cecal ligation and perforation (CLP) model. The assay can be described thus: CLP model of sepsis: survival and behavior. The conditions noted are these: 12 mg/kg i.p. daily Day 0 to Day 2. In kind it is in vivo, C57BL/6 mice. As for the experimental part:
Cecal ligation and perforation was performed on C57BL/6 mice about 10 to 20 weeks of age. Mice were administered either ZLN-005 at 12 mg/kg (i.p.) or vehicle (DMSO) at the time of cecal ligation and perforation, 24 hours later, and 48 hours later (FIG. 1A).
C57BL/6 mice were purchased from Shimizu Laboratory Supplies Co., Ltd. (Kyoto, Japan). Mice were housed in specific-pathogen-free conditions with free access to food and water. Mice were anesthetized by inhalation of isoflurane (099-06571, FUJIFILM Wako Pure Chemical Corporation, Tokyo, Japan). A midline incision was made, followed by externalization, and the cecum was then ligated at half the distance between the distal pole and the base of the cecum and punctured with a 21-gauge needle (NN-2116R, Terumo Corporation, Tokyo, Japan). Next, a small amount of fecal mass from the punctured cecum was gently squeezed out to ensure patency of punctures, the cecum was relocated, and 6/0 Ethicon PROLENE Suture (Ethicon, Inc., Raritan, NJ, USA) was used to close the peritoneum and skin. Sham-operated mice underwent only incision and cecum exteriorization. […]
The results are presented as the means±standard deviations. The statistical significance of differences among groups was evaluated using parametric unpaired t tests for bar graphs. […]

Assay [3] deals with CLP sepsis model. The assay can be described thus: Echocardiographic measurement at 24 hours post-CLP. The settings on record: 24 hours after CLP. In kind it is in vivo, mice. The method, then:
Chest hair was removed with cream one day before echocardiography was performed using VisualSonics Vevo®@2100 equipped with an 18- to 38-MHz probe (VisualSonics, Toronto, ON, Canada). Mice were anesthetized by inhalation of isoflurane at 24 hours post-CLP. The left ventricle was assessed in the parasternal short-axis view. Left ventricular end-systole or end-diastole was defined as the period when the left ventricular lumen was shortest or most dilated, respectively. Diastolic left ventricular (LV) internal diameters, systolic LV internal diameters, diastolic LV anterior wall, and diastolic LV posterior wall were measured from the LV M-mode tracing at the papillary muscle level. LV wall thickness was calculated as the average of anterior and posterior wall thicknesses.

Assay [4] has as its system THP-1 cells. The assay can be described thus: Autophagy flux (LC3 conversion, Western blotting) in LPS model of THP-1. In kind it is cell-based, human. The conditions noted are these: 6 hours LPS followed by 2 or 6 hours autophagy inhibitor (50 nM bafilomycin A1 or 30 nM chloroquine). The method, then:
Cells were incubated at 37° C. in a humidified 5% CO2 incubator. […] After 48 hours, the supernatant of the medium was carefully removed to avoid detaching the cells attached to the bottom of the plate and replaced with new medium containing 1 μM ZLN-005 or DMSO (0.1%) as a control. […] For PI3K inhibition, the cells were seeded in the plate and added 200 nM Wortmannin (AG-CN2-0023-M001, Adipogen Life Sciences Inc.).
Protein levels were quantified using ImageJ™.
For orientation: A western blot detects proteins with antibodies after separation by electrophoresis.

Regarding `CC(C)(C)c1ccc(-c2nc3ccccc3[nH]2)cc1` [ZLN-005, 2-(4-tert-butylphenyl)-1H-benzimidazole], the “increase in expression at the protein level” value in assay [1] (naïve THP-1, 36 hours (data not shown)) worked out at 2 fold. Also, the “increase in expression at the mRNA level” value in assay [1] (naïve THP-1, 48 hours (data not shown)) was determined as 2 fold. In assay [2] (72 hours post-CLP), the “mice alive at 72 hours” value is 40%. Moreover, the “mice alive after 6 days” value in assay [2] (6 days post-CLP) is listed as 30%. The ejection fraction in assay [3] is ~50%.

Consider `CO/C1=C\C(C)=C\[C@@H](C)[C@@H](O)[C@@H](C)C/C(C)=C/C=C/[C@H](OC)[C@@H]([C@@H](C)[C@@H](O)[C@H](C)[C@@]2(O)C[C@@H](O)[C@H](C)[C@@H](C(C)C)O2)OC1=O` [bafilomycin A1], for which the “LC3-II and LC3-II/I ratios” value in assay [4] is on record as “increasing with significant differences”.

Source of the values: patent US20260216142A1, “USES OF ZLN-005 AND RELATED COMPOUNDS” (priority 2022, published 2026).
